target: T1, papain (Carica papaya, UniProt P00784); experiment: Papain inhibitory activity (method of K. Hanada et al); format: biochemical; conditions: papain 80 ug/ml, Sigma, 2 x cry.
T1 construct: purchased Sigma Chem. Co
T1 sequence (P00784 134-345): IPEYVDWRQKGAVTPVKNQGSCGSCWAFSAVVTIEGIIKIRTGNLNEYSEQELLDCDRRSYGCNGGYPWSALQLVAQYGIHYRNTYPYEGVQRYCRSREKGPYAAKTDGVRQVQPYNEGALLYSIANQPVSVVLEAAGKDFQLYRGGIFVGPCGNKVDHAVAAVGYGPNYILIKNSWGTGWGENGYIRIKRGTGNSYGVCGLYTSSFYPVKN
Description: Papain inhibitory activity of the compounds of the present invention was assayed by the method of K. Hanada et al, [Argric. Biol. Chem., 42, No. 3, 523(1978)] using papain (80 ug/ml, Sigma Chem. Co., 2 x cry.).

Row | SMILES | Papain ID50 (amount of inhibitor for 50% inhibition) [µg]
1 | CCOC(=O)C1OC1C(=O)N[C@@H](CC(C)C)C(=O)NC1CCCCC1 (mixture of isomers) [Compound 1, N-[N'-(DL-3-trans-ethoxycarbonyloxirane-2-carbonyl)-L-leucyl]cyclohexylamine] | 0.439
2 | CCCCCCCCCCNC(=O)[C@H](CC(C)C)NC(=O)C1OC1C(=O)OCC (mixture of isomers) [Compound 2, N-[N'-(DL-3-trans-ethoxycarbonyloxirane-2-carbonyl)-L-leucyl]-n-decylamine] | 0.227
3 | CCOC(=O)C1OC1C(=O)N[C@@H](CC(C)C)C(=O)N1CCCC1 (mixture of isomers) [Compound 3, N-[N'-(DL-3-trans-ethoxycarbonyloxirane-2-carbonyl)-L-leucyl]pyrrolidine] | 1.10
4 | CCOC(=O)C1OC1C(=O)N[C@@H](CC(C)C)C(=O)N1CCCCC1 (mixture of isomers) [Compound 4, N-[N'-(DL-3-trans-ethoxycarbonyloxirane-2-carbonyl)-L-leucyl]piperidine] | 0.417
5 | CC(C)C[C@H](NC(=O)C1OC1C(=O)OCc1ccccc1)C(=O)N(C)c1ccccc1 (mixture of isomers) [Compound 10, N-[N'-(DL-3-trans-benzyloxycarbonyloxirane-2-carbonyl)-L-leucyl]-N-methylaniline] | 0.510
6 | CC(C)C[C@H](NC(=O)C1OC1C(=O)OCc1ccccc1)C(=O)N(C)C (mixture of isomers) [Compound 11, N-[N'-(DL-3-trans-benzyloxycarbonyloxirane-2-carbonyl)-L-leucyl]dimethylamine] | 0.184
7 | CC(C)C[C@H](NC(=O)C1OC1C(=O)OC1CCCCC1)C(=O)NC1CCCCC1 (mixture of isomers) [Compound 13, N-[N'-(DL-3-trans-cyclohexyloxycarbonyloxirane-2-carbonyl)-L-leucyl]cyclohexylamine] | 0.255
8 | CC(C)C[C@H](NC(=O)C1OC1C(=O)OC1CCCC1)C(=O)NC1CCCC1 (mixture of isomers) [Compound 14, N-[N'-(DL-3-trans-cycloentyloxycarbonyl)-L-leucyl]cyclopentylamine] | 0.187
9 | CC(C)C[C@H](NC(=O)C1OC1C(=O)OCc1ccccc1)C(=O)N[C@@H](CC(C)C)C(=O)OCc1ccccc1 (mixture of isomers) [Compound 17, N-(DL-3-trans-benzyloxycarbonyloxirane-2-carbonyl)-L-leucyl-L-leucine benzyl ester] | 0.255
10 | CCOC(=O)C1OC1C(=O)N[C@@H](Cc1ccccc1)C(=O)N[C@@H](Cc1ccccc1)C(=O)OC (mixture of isomers) [Compound 18, N-(DL-3-trans-ethoxycarbonyloxirane-2-carbonyl-L-phenylalanyl-L-phenylalaninemethyl ester] | 29.07
11 | COC(=O)CC[C@H](NC(=O)[C@H](CC(C)C)NC(=O)C1OC1C(=O)OCc1ccccc1)C(=O)OC (mixture of isomers) [Compound 20, N-(DL-3-trans-benzyloxycarbonyloxirane-2-carbonyl)-L-leucyl-L-gluamic acid dimethyl ester] | 0.255
12 | CC[C@H](C)[C@H](NC(=O)[C@H](CC(C)C)NC(=O)C1OC1C(=O)OCc1ccccc1)C(=O)OC (mixture of isomers) [Compound 21, N-(DL-3 trans-benzyloxycarbonyloxirane-2-carbonyl)-L-leucyl-L-isoleucine methyl ester] | 0.169
13 | COC(=O)[C@H](CC(C)C)NC(=O)[C@@H](CC(C)C)NC(=O)C1OC1C(=O)OCc1ccccc1 (mixture of isomers) [Compound 22, N-(DL-3-trans-benzyloxycarbonyloxirane-2-carbonyl)-D-leucyl-L-leucine methyl ester] | 8.28
14 | COC(=O)[C@@H](CC(C)C)NC(=O)[C@H](CC(C)C)NC(=O)C1OC1C(=O)OCc1ccccc1 (mixture of isomers) [Compound 23, N-(DL-3-trans-benzyloxycarbonyloxirane-2-carbonyl)-L-leucyl-D-leucine methyl ester] | 0.221
15 | COC(=O)[C@H](CCCN=C(N)N[N+](=O)[O-])NC(=O)[C@H](CC(C)C)NC(=O)C1OC1C(=O)OCc1ccccc1 (mixture of isomers) [Compound 26, N-(DL-3-trans-benzyloxycarbonyloxirane-2-carbonyl)-L-leucyl-N^G -nitro-L-arginine methyl ester] | 0.139
16 | CC(C)C[C@H](NC(=O)C1OC1C(=O)O)C(=O)N[C@@H](CCCN)C(=O)O (mixture of isomers) [Compound 44, N-(DL-3-trans-carboxyoxirane-2-carbonyl)-L-leucyl-L-ornithine] | 0.250
17 | COC(=O)[C@@H]1CCCN1C(=O)[C@H](CC(C)C)NC(=O)C1OC1C(=O)O (mixture of isomers) [Compound 46, N-(DL-3-trans-carboxyoxirane-2-carbonyl)-L-leucyl-L-proline methyl ester] | 0.105
18 | COC(=O)CC[C@H](NC(=O)[C@H](CC(C)C)NC(=O)C1OC1C(=O)O)C(=O)OC (mixture of isomers) [Compound 47, N-(DL-3-transcarboxyoxirane-2-carbonyl)-L-leucyl-L-glutamic acid dimethyl ester] | 0.260
19 | CC(C)C[C@H](NC(=O)C1OC1C(=O)O)C(=O)N[C@@H](CC(C)C)C(=O)OCc1ccccc1 (mixture of isomers) [Compound 48, N-(DL-3-trans-carboxyoxirane-2-carbonyl)-L-leucyl-L-leucine benzyl ester] | 0.215
20 | CCOC(=O)C1OC1C(=O)N[C@@H](CC(C)C)C(=O)NC1CC1 (stereo partly drawn) [Compound 5] | 0.284
21 | CCOC(=O)C1OC1C(=O)N[C@@H](CC(C)C)C(=O)NC1CCCC1 (stereo partly drawn) [Compound 6] | 0.410
22 | CCOC(=O)C1OC1C(=O)N[C@@H](CC(C)C)C(=O)NCCC(C)C (stereo partly drawn) [Compound 7] | 0.410
23 | CCOC(=O)C1OC1C(=O)N[C@@H](CC(C)C)C(=O)NCCc1ccccc1 (stereo partly drawn) [Compound 8] | 0.446
24 | CCCNC(=O)[C@H](CC(C)C)NC(=O)C1OC1C(=O)OCC (stereo partly drawn) [Compound 9] | 0.313
25 | COC(=O)[C@@H](CC(C)C)NC(=O)[C@H](CC(C)C)NC(=O)[C@@H]1O[C@H]1C(=O)OCc1ccccc1 [Compound 24, N-(D-3-trans-benzyloxycarbonyloxirane-2-carbonyl)-L-leucyl-D-leucine methyl ester] | 0.219
26 | COC(=O)[C@@H](CC(C)C)NC(=O)[C@H](CC(C)C)NC(=O)[C@H]1O[C@@H]1C(=O)OCc1ccccc1 [Compound 25, N-(L-3-trans-benzyloxycarbonyloxirane-2-carbonyl)-L-leucyl-D-leucine methyl ester] | 0.223
27 | COC(=O)[C@H](CCSC)NC(=O)[C@H](CC(C)C)NC(=O)C1OC1C(=O)OCc1ccccc1 (stereo partly drawn) [Compound 27] | 0.216

— patent US4382889A, “Epoxysuccinic acid derivatives” (Taisho Pharmaceutical Co., Ltd., priority 1979, dated 1983)
